Data: ChEMBL document CHEMBL6115021, “Design of Benzyl-triazolopyrimidine-Based NADPH Oxidase Inhibitors Leads to the Discovery of a Potent Dual Covalent NOX2/MAOB Inhibitor” (J Med Chem, 2025)
The source made the active and inactive calls. The calls are words filed in the database; no cut-off is given here.

Experiments:
NADPH oxidase 4 = target: T1, NADPH oxidase 4 (Homo sapiens, UniProt Q9NPH5); assay: Inhibition of human NOX4
T1 sequence (Q9NPH5 whole entry): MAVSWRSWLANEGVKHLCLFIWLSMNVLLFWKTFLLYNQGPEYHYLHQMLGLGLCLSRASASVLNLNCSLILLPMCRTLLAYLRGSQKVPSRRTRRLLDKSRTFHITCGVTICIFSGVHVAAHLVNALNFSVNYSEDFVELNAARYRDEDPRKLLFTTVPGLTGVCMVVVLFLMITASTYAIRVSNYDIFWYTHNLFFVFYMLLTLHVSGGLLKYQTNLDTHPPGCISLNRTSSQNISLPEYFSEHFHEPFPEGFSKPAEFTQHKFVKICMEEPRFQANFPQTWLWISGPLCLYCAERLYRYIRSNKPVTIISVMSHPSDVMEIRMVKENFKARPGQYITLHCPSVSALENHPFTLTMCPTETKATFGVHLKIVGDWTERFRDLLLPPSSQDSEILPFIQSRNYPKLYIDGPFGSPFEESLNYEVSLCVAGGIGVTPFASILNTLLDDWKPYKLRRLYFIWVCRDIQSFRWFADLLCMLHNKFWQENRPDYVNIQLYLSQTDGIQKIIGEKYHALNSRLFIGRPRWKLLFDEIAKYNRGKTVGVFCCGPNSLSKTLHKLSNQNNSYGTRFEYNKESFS

NADPH oxidase 2 [1] = target: T2, NADPH oxidase 2 (Homo sapiens, UniProt P04839); assay: Inhibition of human NOX2
T2 sequence (P04839 whole entry): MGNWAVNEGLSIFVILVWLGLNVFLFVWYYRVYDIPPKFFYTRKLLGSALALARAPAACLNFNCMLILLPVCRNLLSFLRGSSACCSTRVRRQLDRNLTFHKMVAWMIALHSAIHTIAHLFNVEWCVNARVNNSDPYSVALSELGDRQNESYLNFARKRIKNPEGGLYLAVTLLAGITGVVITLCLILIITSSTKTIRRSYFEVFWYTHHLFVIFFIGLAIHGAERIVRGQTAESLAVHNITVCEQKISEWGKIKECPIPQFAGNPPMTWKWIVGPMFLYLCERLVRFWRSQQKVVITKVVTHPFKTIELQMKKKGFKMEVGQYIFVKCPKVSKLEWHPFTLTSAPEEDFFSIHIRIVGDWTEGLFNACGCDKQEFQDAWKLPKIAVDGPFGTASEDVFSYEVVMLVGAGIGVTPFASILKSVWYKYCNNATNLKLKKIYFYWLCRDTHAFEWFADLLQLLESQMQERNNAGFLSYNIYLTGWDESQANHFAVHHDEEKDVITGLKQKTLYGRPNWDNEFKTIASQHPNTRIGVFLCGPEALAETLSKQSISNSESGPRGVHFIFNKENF

BV-2 [2] = assay: Neuroprotective activity against LPS/IFN-gamma induced mouse BV-2 cells assessed as reduction in ROS level by measuring change in fluorescence intensity at 10 uM incubated for 48 hrs by CellROX reagent based fluorescence analysis; format: functional, cell-based
Albumin = Albumin (Bos taurus, UniProt P02769); assay: Binding affinity to bovine serum albumin 5 to 20 uM incubated for 30 mins by mass spectrometry analysis; format: ADME; settings: cattle, isolated protein, 0.5 h, dose 5-20 µM
BV-2 [3] = assay: Neuroprotective activity against LPS/IFN-gamma induced mouse BV-2 cells assessed as effect on cell viability at 10 uM incubated for 48 hrs by MTT assay; format: functional, cell-based
NADPH oxidase 2 [4] = target: T2, NADPH oxidase 2; assay: Inhibition of human NOX2 by cell based assay
NADPH oxidase 1 = target: T3, NADPH oxidase 1 (Homo sapiens, UniProt Q9Y5S8); assay: Inhibition of human NOX1
T3 sequence (Q9Y5S8 whole entry): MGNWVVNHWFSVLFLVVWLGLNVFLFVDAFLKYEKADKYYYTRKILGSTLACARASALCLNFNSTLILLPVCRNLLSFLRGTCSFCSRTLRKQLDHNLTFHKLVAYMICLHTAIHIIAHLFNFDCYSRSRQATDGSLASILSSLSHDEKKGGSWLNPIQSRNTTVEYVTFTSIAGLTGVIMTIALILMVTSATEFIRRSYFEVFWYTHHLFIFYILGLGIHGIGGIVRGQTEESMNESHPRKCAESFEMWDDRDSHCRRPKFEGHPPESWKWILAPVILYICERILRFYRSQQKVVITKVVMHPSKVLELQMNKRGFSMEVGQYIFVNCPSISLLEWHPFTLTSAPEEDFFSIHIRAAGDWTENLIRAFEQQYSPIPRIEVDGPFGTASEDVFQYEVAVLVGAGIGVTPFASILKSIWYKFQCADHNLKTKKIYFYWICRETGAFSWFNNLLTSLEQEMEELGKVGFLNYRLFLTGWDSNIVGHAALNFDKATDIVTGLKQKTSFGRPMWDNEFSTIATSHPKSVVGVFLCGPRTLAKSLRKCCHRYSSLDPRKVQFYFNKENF

NADPH oxidase 5 = target: T4, NADPH oxidase 5 (Homo sapiens, UniProt Q96PH1); assay: Inhibition of human NOX5
T4 sequence (Q96PH1 whole entry): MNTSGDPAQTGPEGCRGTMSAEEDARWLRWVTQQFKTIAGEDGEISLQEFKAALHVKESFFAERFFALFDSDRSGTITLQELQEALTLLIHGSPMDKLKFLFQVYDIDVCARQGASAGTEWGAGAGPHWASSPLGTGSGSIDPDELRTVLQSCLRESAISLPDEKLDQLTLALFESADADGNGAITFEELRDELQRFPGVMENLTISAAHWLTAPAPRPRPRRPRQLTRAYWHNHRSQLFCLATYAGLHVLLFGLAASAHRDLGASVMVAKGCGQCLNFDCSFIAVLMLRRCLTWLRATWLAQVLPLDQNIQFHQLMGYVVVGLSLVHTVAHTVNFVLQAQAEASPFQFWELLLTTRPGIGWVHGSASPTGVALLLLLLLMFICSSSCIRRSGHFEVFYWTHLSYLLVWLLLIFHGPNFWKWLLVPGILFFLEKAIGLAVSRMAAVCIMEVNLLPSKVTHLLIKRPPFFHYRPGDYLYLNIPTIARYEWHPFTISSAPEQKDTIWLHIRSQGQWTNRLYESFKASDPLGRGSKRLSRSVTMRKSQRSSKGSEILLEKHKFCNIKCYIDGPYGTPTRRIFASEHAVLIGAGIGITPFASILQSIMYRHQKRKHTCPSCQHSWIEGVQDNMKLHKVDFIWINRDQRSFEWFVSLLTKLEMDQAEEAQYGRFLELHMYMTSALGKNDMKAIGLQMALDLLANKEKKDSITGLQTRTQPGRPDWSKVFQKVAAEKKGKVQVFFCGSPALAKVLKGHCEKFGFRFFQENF

Chain of Albumin (P02769 whole entry): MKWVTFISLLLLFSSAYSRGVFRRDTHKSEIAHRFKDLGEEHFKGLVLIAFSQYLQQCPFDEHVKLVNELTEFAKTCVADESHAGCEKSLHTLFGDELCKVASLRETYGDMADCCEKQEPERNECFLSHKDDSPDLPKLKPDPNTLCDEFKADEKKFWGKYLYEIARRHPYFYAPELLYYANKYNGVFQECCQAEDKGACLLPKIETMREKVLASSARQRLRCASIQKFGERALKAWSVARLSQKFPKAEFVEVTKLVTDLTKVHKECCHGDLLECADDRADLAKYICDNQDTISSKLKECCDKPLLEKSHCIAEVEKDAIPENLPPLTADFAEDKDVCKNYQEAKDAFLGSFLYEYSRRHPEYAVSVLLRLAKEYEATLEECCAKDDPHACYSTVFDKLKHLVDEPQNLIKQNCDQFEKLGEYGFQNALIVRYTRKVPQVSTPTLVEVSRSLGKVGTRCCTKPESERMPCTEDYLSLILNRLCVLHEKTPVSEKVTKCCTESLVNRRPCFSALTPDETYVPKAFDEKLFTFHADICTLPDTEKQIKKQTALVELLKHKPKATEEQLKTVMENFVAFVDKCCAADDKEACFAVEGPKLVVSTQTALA

IC50 (NADPH oxidase 4) [µM]	IC50 (NADPH oxidase 2 [1]) [µM]	EC50 (NADPH oxidase 2 [4]) [µM]	Structure (SMILES)	Activity (BV-2 [2])	Activity (BV-2 [3])	other results
5.7	5.1		Clc1ncnc2c1nnn2Cc1ccccc1			
			C#CCN(C)Cc1ccc(Cn2nnc3c(Sc4nc5ccccc5o4)ncnc32)cc1	Active	Active	Activity (Albumin): Not_active
			C#CCN[C@@H]1CCc2ccccc21		Active	
81.2	7.7	5.7	c1ccc(-c2cc(NC3CCNCC3)nc3ccccc23)cc1			IC50 (NADPH oxidase 1): 71.2 µM; IC50 (NADPH oxidase 5): 28 µM
5.7	5.1	2.1	O=C1c2ccccc2-c2cc(N3CCC4(CC3)OCCO4)nc3cccc1c23			
			c1ccc(Cn2nnc3c(Sc4nc5ccccc5o4)ncnc32)cc1	Active		
